Test results from patent US20090068126A1, “Composition for surface photoprotection” (priority 2004, published 2009).

Experiments:
[1] = tested on: Saccharomyces cerevisiae yeast, wild type strain D273-10B; experiment: Phototoxicity test in Saccharomyces cerevisiae yeast (in vitro); format: cell-based
Text: The method applied was used by Freitas (Freitas, Z. M. F., I Ax, P. A., Dellamora-Ortiz, G. M., Santos, E. P., Gonçalves, J. C. S., S.T.P Pharma Sciences, 2000, 10 (3): 239-242) for the Saccharomyces cerevisiae yeast use, wild type strain D273-10B, at room temperature, which dense cell layer is not sensitive to the ultraviolet radiation among 320-390 nm (UVA), besides being innocuous.
The yeast growth was in a YPD medium, constituted by yeast extract (1%), peptone (2%), anhydrous glucose (2%), agar (2%). […] The studied substances were applied in 1 g % concentration in Wharman no. 1 sterile filter paper disks, and fixed on the surface of culture media plates. A S. cerevisiae suspension was prepared in sterilized water (10 mL). Aliquots of 0.2 mL were applied and spread in the culture plates using a glass loop. Two plates were prepared for each sample. After seeding and applying the samples, one plate was allowed to grow under two UVA lamps (320-390 nm). A control plate was grown in the dark. […]

[2] = tested on: short hair line albino Guinea pigs; experiment: Phototoxicity in vivo; set-up: species or system guinea pig; conditions: 0.1 g %, only in the irradiated area
Procedure: The tests are accomplished in short hair line albino Guinea pigs (n=4). Twenty-four hours before the application of the test substance to 5% [tween/ethanol/water (1:1:10)], the animals dorsal portion hair are chemically removed. Four application sites are chosen, at random: 2 areas for the test substance and other 2 for the methoxypsoralen phototoxic standard at 0.1 g %, following by the UVA radiation exposition, and a control area is protected from the light. After 24 and 48 hours, the observations are made as for the erythema edema formation (AGÊNCIA NACIONAL DE VIGILÂNCIA SANITÁRIA-Brazil, Guia para avaliaçãa de segurança de produtos cosméticos. 2003.; Freitas, Z. M. F., I Ax, P. A., Dellamora-Ortiz, G. M., Santos, E. P., Gonçalves, J. C. S., 2000, S.T.P Pharma Sciences, 10 (3) 239-242; Dinardo, J. C., Wolf, B. A., Morris, W. E., Tenenbaum, S., Schnetzinger, R. W., 1985, J. Soc. Cosmet. Chem., 36, 425-433).

In the case of COc1c2occc2cc2ccc(=O)oc12 [8-methoxypsoralen], the growth inhibition halo ([1]; 0.1 g % in ethanol, plates in the light and in the dark) is reported as “presented growth inhibition halo in the light”, the “phototoxic answer in the in vitro phototoxicity test” value ([1]; irradiated plate and plate with light absence) is reported as “non-phototoxic” and the erythema degree ([2]; 24 hours) is reported as 1. The erythema degree ([2]; 48 hours) was 2.
